Experimental data published in paper PMC10324399, “New Radiolabeled Exendin Analogues Show Reduced Renal Retention” (Molecular Pharmaceutics, 2023).

How the values were obtained:
[1] = co-administration; cited from earlier work
Description: Several successful strategies to reduce the renal uptake of radiolabeled peptides have been described. […]. […] These two studies evoked the question whether the translation of the methionine–isoleucine linker to exendin-4 could help to reduce the renal uptake of exendin. Based on literature, the additio ...

[2] = Dosimetry: absorbed kidney dose extrapolated to humans (OLINDA/EXM, 80 kg male reference model); design: species or system human; details: radiolabeled tracer (^68Ga or ^177Lu), extrapolated from mice data
Description: The mice data were then used to extrapolate the expected absorbed kidney doses per injected activity to humans using the equation:[25],[26] [drawing 1] with [drawing 2] the percentage of the injected activity concentration, [drawing 3] the percentage of the injected activity per organ, m the organ mass, and M the total human or mouse body weight.

[3] = Serum stability of 68Ga- and 177Lu-labeled exendin-4 analogues in human serum; type: in vitro ADME; details: ^177Lu-labeled peptide, human serum (1:10), 37 °C, after 24 h, acetonitrile precipitation, RP-HPLC
Protocol: Serum stability was analyzed as described in the Supporting Information.
The radiolabeled compounds were incubated in
10 human serum (1:10) at 37°C and samples were taken after 1 and 2 hour incubation for the 68Ga-labeled
12 Supernatant was obtained by precipitating the serum proteins by adding a 1:1 (v/v) volume of
13 acetonitrile, followed by centrifugation for 5 min at 3220xg. Subsequently, the supernatant was
14 analyzed using RP-HPLC. RP-HPLC was performed as described in the main text.

[4] = Dosimetry: kidney self-dose in mice (OLINDA/EXM, 25 g RADAR model); design: species or system mouse
Protocol: The kidney self-dose was calculated based on the activity distribution of the tracer in the kidneys. Time-integrated activity coefficients (MBq-h/MBq) were calculated using mono-exponential curve-fitting between the timepoints.

estimated absorbed kidney dose per injected activity, humans [2] [mSv/MBq] | serum stability [3] [% after 24 h] | reduction of estimated absorbed kidney dose vs reference without MI linker ([4]; in both mice and humans) [%] | estimated absorbed kidney dose per injected activity, mice ([4]; radiolabeled tracer (^68Ga or ^177Lu), from biodistribution in INS-1 tumor-bearing mice, OLINDA/EXM 2.1, 25 g RADAR model) [mSv/MBq] | Molecule | increase in renal uptake of radiolabeled exendin [1] [%]
 |  |  |  | NCCCC[C@H](N)C(=O)O [lysine] | 6
0.89 | >80 | 57 | 1974 | Lys^40[Mep((S-)DOTA-Met-Ile-Mal-)]exendin-4 [DOTA-MI-exendin-4] | 
